US10464928B2, “Amino pyrimidine SSAO inhibitors” (Eli Lilly and Company, priority 2016, dated 2019)

Columns and labels:
[1] = test system: SSAO activity in rat plasma and liver tissues; assay: SSAO Target Engagement (residual SSAO activity in rat plasma and liver after dosing); type: in vivo; settings: doses 0.005-15 mg/kg
Experimental: The SSAO activity in rat plasma and liver tissues are measured using the MAO-Glo™ assay kit from Promega (V1402). The residual SSAO activity in rats after compound treatment is estimated by measuring the total amine oxidase activity in plasma or liver lysates that are insensitive to the presence of the MAO inhibitor Clogyline and Pargyline. Rats are administered the compound of Example 2 at the doses of 15, 3, 0.6, 0.12, 0.025, 0.005 mg/kg. The control group is administered with the same volume (2 ml/kg) of the dosing vehicle (hydroxyethyl cellulose 1% w/v, 0.25% Tween 80). Plasma and liver at 2 or 24 hours post compound treatment are harvested and stored at −78° C. until analysis. Tissue lysates are prepared by homogenization in a lysis buffer (20 mM HEPES, pH 7.4, 150 mM NaCl, 1 mM EDTA, 1 mM EGTA, 1% Triton X-100 and 1× Roche Complete protease inhibitor tablet). Tissue particles are removed by centrifugation at 12,000 rpm at 4° C. for 30 minutes. 40 μl of plasma or liver lysates is incubated with Clogyline (10 μM) and Pargyline (10 μM) for 20 minutes at room temperature before the addition of the luminogenic substrate (50 μM) for 60 minutes. The product generated is quantified according to the manufacture's procedure. […] The compound of Example 2 was evaluated in the protocol essentially as described above administered at various doses.

[2] = test system: NASH and fibrosis induced by 3H diet; assay: Mouse Model of NASH and Fibrosis Induced by 3H Diet; type: in vivo, Male C57BL/6N mice; settings: for Perisinusoidal fibrosis Left, Score (0-3) / Hepatic inflammation Left, Score (0-3) / Macrovesicular vaculation Left, Score (0-3): left lobe; for Perisinusoidal fibrosis Left, Score (0-3): vehicle 2.5 ± 0.2; for Hepatic inflammation Left, Score (0-3) / Macrovesicular vaculation Left, Score (0-3) / Macrovesicular vaculation Right, Score (0-3): vehicle 2.8 ± 0.1; for Perisinusoidal fibrosis Right, Score (0-3) / Hepatic inflammation Right, Score (0-3) / Macrovesicular vaculation Right, Score (0-3): right lobe; for Perisinusoidal fibrosis Right, Score (0-3): vehicle 2.3 ± 0.1; for Hepatic inflammation Right, Score (0-3): vehicle 2.7 ± 0.1
Experimental: Male C57BL/6N mice are fed with D09100301 diet (Research Diets, 40% fat, 2% cholesterol, 24% fructose, (the, high fat, high cholesterol and high fructose, the “3H diet”) for 150 days. Each mouse is then singly housed after 5 days for an acclimation period. Plasma alanine aminotransferase (ALT) and cytokeratin 18 (CK18) are measured. After one week of recovery, the mice are randomized into 5 groups based on their ALT values, CK18 values, and body weight. […] Blood is collected from mice treated with the compound of Example 6 for 76 days 2 hours after the last dose. Compound levels in the plasma are analyzed by mass spectroscopy. […] At the completion of the study, the animals are sacrificed and their livers excised. Two sections of the left and right lobes are fixed in neutral buffered 10% formalin. Liver tissue slides are stained with hematoxylin and eosin (H&E), Sirius red, and Masson's Trichrome to prepare slides for pathological analysis. All specimens are examined microscopically and scored as a modified Brunt score NASH Activity Score. Scores are based on the grading scheme and end-points as described in Brunt E. M, et al., “Histopathology of nonalcoholic fatty liver disease,” World J. of Gastroenterol, 2010, 16(42), 5286-5296. Group means are then calculated for each individual end-point. The following endpoints are used to characterize the fast food model of NASH in mice as modified from NASH endpoints (See Brunt, E. M. “Histopathology of nonalcoholic fatty liver disease,” Clin Liver Dis., 2009, 13, 533-544 and Brunt, E. M, et al., “Nonalcoholic steatohepatitis: A proposal for grading and staging the histological lesions”, Am J Gastroenterology, 1999, 94(9), 2467-2474.

[3] = Plasma compound level in 3H diet mice by mass spectroscopy; type: in vivo, Male C57BL/6N mice; settings: treated mice, all doses
Experimental: Male C57BL/6N mice are fed with D09100301 diet (Research Diets, 40% fat, 2% cholesterol, 24% fructose, (the, high fat, high cholesterol and high fructose, the “3H diet”) for 150 days. Each mouse is then singly housed after 5 days for an acclimation period. Plasma alanine aminotransferase (ALT) and cytokeratin 18 (CK18) are measured. After one week of recovery, the mice are randomized into 5 groups based on their ALT values, CK18 values, and body weight. Animals of each group are administrated either vehicle (0.5% methylcellulose (MC)+0.25% Tween 80 in distilled water) or the compound of Example 6 (at a 0.06, 2, 6, and 20 mg/kg dose) once daily in a volume of 5 ml/kg for 11 weeks. Blood is collected from mice treated with the compound of Example 6 for 76 days 2 hours after the last dose. Compound levels in the plasma are analyzed by mass spectroscopy.

Structure (SMILES): Cl.Cl.NC/C(=C\F)COc1cnc(N2CCC(O)CC2)nc1 [Example 2, 1-[5-[(E)-2-(Aminomethyl)-3-fluoro-allyloxy]pyrimidin-2-yl]piperidin-4-ol dihydrochloride]
- SSAO activity in rat plasma and liver (result in words) [1]: dose-dependently inhibits SSAO activity

Structure (SMILES): Cl.Cl.NC/C(=C\F)COc1cnc(N2CC[C@H](O)C2)nc1 [Example 6, (3S)-1-[5-[(E)-2-(Aminomethyl)-3-fluoro-allyloxy]pyrimidin-2-yl]pyrrolidin-3-ol; Dihydrochloride]
- Perisinusoidal fibrosis Left, Score (0-3) ([2]; 0.6 mg/kg once daily 11 weeks): 2.4 ± 0.2
- Hepatic inflammation Left, Score (0-3) ([2]; 0.6 mg/kg once daily 11 weeks): 2.6 ± 0.1
- Macrovesicular vaculation Left, Score (0-3) ([2]; 0.6 mg/kg once daily 11 weeks): 2.5 ± 0.1
- Perisinusoidal fibrosis Right, Score (0-3) ([2]; 0.6 mg/kg once daily 11 weeks): 1.9 ± 0.2
- Hepatic inflammation Right, Score (0-3) ([2]; 0.6 mg/kg once daily 11 weeks): 2.5 ± 0.1
- Macrovesicular vaculation Right, Score (0-3) ([2]; 0.6 mg/kg once daily 11 weeks): 2.6 ± 0.1
- Perisinusoidal fibrosis Left, Score (0-3) ([2]; 2 mg/kg once daily 11 weeks): 2.5 ± 0.2
- Hepatic inflammation Left, Score (0-3) ([2]; 2 mg/kg once daily 11 weeks): 2.5 ± 0.1
- Macrovesicular vaculation Left, Score (0-3) ([2]; 2 mg/kg once daily 11 weeks): 2.5 ± 0.1
- Perisinusoidal fibrosis Right, Score (0-3) ([2]; 2 mg/kg once daily 11 weeks): 1.8 ± 0.2
- Hepatic inflammation Right, Score (0-3) ([2]; 2 mg/kg once daily 11 weeks): 2.6 ± 0.1
- Macrovesicular vaculation Right, Score (0-3) ([2]; 2 mg/kg once daily 11 weeks): 2.7 ± 0.1
- Perisinusoidal fibrosis Left, Score (0-3) ([2]; 6 mg/kg once daily 11 weeks): 2.6 ± 0.2
- Hepatic inflammation Left, Score (0-3) ([2]; 6 mg/kg once daily 11 weeks): 2.5 ± 0.2
- Macrovesicular vaculation Left, Score (0-3) ([2]; 6 mg/kg once daily 11 weeks): 2.9 ± 0.1
- Perisinusoidal fibrosis Right, Score (0-3) ([2]; 6 mg/kg once daily 11 weeks): 2.1 ± 0.3
- Hepatic inflammation Right, Score (0-3) ([2]; 6 mg/kg once daily 11 weeks): 2.6 ± 0.2
- Macrovesicular vaculation Right, Score (0-3) ([2]; 6 mg/kg once daily 11 weeks): 2.7 ± 0.1
- hepatic inflammation (result in words) ([2]; 20 mg/kg): significant decrease
- macrovesicular vaculation (result in words) ([2]; 20 mg/kg): significant decrease
- perisinusoidal fibrosis (result in words) ([2]; 20 mg/kg): significant decrease
- Perisinusoidal fibrosis Left, Score (0-3) ([2]; 20 mg/kg once daily 11 weeks): 1.9 ± 0.2
- Hepatic inflammation Left, Score (0-3) ([2]; 20 mg/kg once daily 11 weeks): 2.1 ± 0.1
- Macrovesicular vaculation Left, Score (0-3) ([2]; 20 mg/kg once daily 11 weeks): 2.4 ± 0.2
- Perisinusoidal fibrosis Right, Score (0-3) ([2]; 20 mg/kg once daily 11 weeks): 1.5 ± 0.2
- Hepatic inflammation Right, Score (0-3) ([2]; 20 mg/kg once daily 11 weeks): 2.1 ± 0.1
- Macrovesicular vaculation Right, Score (0-3) ([2]; 20 mg/kg once daily 11 weeks): 2.3 ± 0.1
- triglyceride levels in blood (result in words) ([2]; 6 and 20 mg/kg): decreased
- ALT (result in words) ([2]; all groups of treated mice vs vehicle): significant decrease
- plasma compound levels (result in words) [3]: dose-dependent increase
